In the supplement of paper PMC10307832:

Compound: COC1=CC=C(C=C1)CN2C=CC3=C2C=C(C=C3)C(=O)NO + CC1(C)CCC(c2ccc(Cl)cc2)=C(CN2CCN(c3ccc(C(=O)NS(=O)(=O)c4ccc(N[C@H](CCN5CCOCC5)CSc5ccccc5)c(S(=O)(=O)C(F)(F)F)c4)cc3)CC2)C1 [Navitoclax] (partner 0.5 µM)
Experiment: relative viability (nuclei count vs DMSO), 5 days (fraction); higher = more cells survive
Conditions: first compound 0.08 µM
Outline: (§1)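 Relative viability was taken as the ratio of nuclei in treated wells to nuclei in vehicle wells. Lung cancer cell lines in 1536-well plates received compounds by pin tool one day after seeding, either one drug alone or a fixed anchor-drug dose plus five library-drug doses (not always all listed) in √10 steps. Nuclei were counted on 4× images after 5 days of treatment, and values are medians of duplicate plates.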

Cell Line	relative viability
LXF-289	0.446
LC-2-ad	0.421
NCI-H1651	0.926
COR-L23	0.77
HCC-827	0.95
RERF-LC-KJ	0.934
NCI-H3122	1.01
BEN	0.0556
UMC-11	0.197
NCI-H2085	0.891
NCI-H1793	0.461
201T	1.19
NCI-H2228	0.955
LOU-NH91	0.419
NCI-H1666	0.85
NCI-H1993	0.68
NCI-H2126	0.824
NCI-H1755	0.949
PC-3 [JPC-3]	0.822
NCI-H2087	0.974
NCI-H441	0.611
HOP-62	0.547
NCI-H2170	0.476
NCI-H2347	0.579
HARA	0.479
NCI-H1355	0.781

Same assay, conditions: first compound 0.253 µM

Cell Line	relative viability
PC-14	1.04
LXF-289	0.947
LC-2-ad	0.427
NCI-H1651	1.14
COR-L23	0.945
HCC-827	0.964
RERF-LC-KJ	0.852
NCI-H3122	1
BEN	0.0746
UMC-11	0.341
LCLC-97TM1	0.505
NCI-H2085	1.04
A-427	1
NCI-H838	1.22
NCI-H1793	0.672
201T	1.24

Cell Line	relative viability
NCI-H2228	1.19
LOU-NH91	0.677
NCI-H1666	0.893
ChaGo-K-1	0.932
NCI-H1993	1.02
NCI-H647	1.04
NCI-H2126	0.931
NCI-H1755	1.02
PC-3 [JPC-3]	0.831
NCI-H2087	1.03
NCI-H441	0.708
HOP-62	0.984
NCI-H2170	0.669
NCI-H2347	0.883
HARA	1.1
NCI-H1355	1

Same assay, conditions: first compound 0.8 µM

Cell Line	relative viability
PC-14	1.01
LXF-289	0.954
LC-2-ad	0.561
NCI-H1651	1.07
COR-L23	1.04
HCC-827	0.988
RERF-LC-KJ	0.903
NCI-H3122	1.02
BEN	0.0683
UMC-11	0.316
LCLC-97TM1	0.472
NCI-H2085	1.19
A-427	1.02
NCI-H838	1.17
NCI-H1793	0.479
201T	1.22

Cell Line	relative viability
NCI-H2228	1.04
LOU-NH91	0.739
NCI-H1666	0.988
ChaGo-K-1	1.13
NCI-H1993	1.04
NCI-H647	1
NCI-H2126	0.849
NCI-H1755	1
PC-3 [JPC-3]	0.83
NCI-H2087	1.13
NCI-H441	0.701
HOP-62	1.02
NCI-H2170	0.715
NCI-H2347	0.843
HARA	1.13
NCI-H1355	0.94

Same assay, conditions: first compound 2.53 µM

Cell Line	relative viability
PC-14	1.14
LXF-289	0.935
LC-2-ad	0.527
NCI-H1651	0.987
COR-L23	1.11
HCC-827	1.08
RERF-LC-KJ	1.04
NCI-H3122	1.02
BEN	0.156
UMC-11	0.317
LCLC-97TM1	0.42
NCI-H2085	1.01
A-427	1.04
NCI-H838	1.22
NCI-H1793	0.406
201T	1.23

Cell Line	relative viability
NCI-H2228	1.1
LOU-NH91	0.725
NCI-H1666	1.26
ChaGo-K-1	0.911
NCI-H1993	1.09
NCI-H647	0.959
NCI-H2126	0.848
NCI-H1755	1.03
PC-3 [JPC-3]	0.859
NCI-H2087	1.08
NCI-H441	0.523
HOP-62	1.08
NCI-H2170	0.634
NCI-H2347	0.968
HARA	1.17
NCI-H1355	1.11

Same assay, conditions: first compound 8 µM

Cell Line	relative viability
PC-14	1.02
LXF-289	1.03
LC-2-ad	0.552
NCI-H1651	0.92
COR-L23	1.01
HCC-827	0.986
RERF-LC-KJ	0.926
NCI-H3122	1.03
BEN	0.0729
UMC-11	0.339
LCLC-97TM1	0.412
NCI-H2085	1.08
A-427	0.806
NCI-H838	1.09
NCI-H1793	0.424
201T	1.19

Cell Line	relative viability
NCI-H2228	0.411
LOU-NH91	0.576
NCI-H1666	1.06
ChaGo-K-1	0.887
NCI-H1993	0.991
NCI-H647	1.21
NCI-H2126	0.886
NCI-H1755	1.02
PC-3 [JPC-3]	0.74
NCI-H2087	0.856
NCI-H441	0.595
HOP-62	1.02
NCI-H2170	0.509
NCI-H2347	0.762
HARA	1.14
NCI-H1355	0.873

Compound: C[C@]1(c2nc3c(C(N)=O)cccc3[nH]2)CCCN1 [Veliparib] + Nc1nc2[nH]cc(CCc3ccc(C(=O)N[C@@H](CCC(=O)O)C(=O)O)cc3)c2c(=O)[nH]1 [Pemetrexed] (partner 0.2 µM)
Experiment: as above
Conditions: first compound 0.02 µM
Outline: as §1

Cell Line	relative viability
LXF-289	0.897
LC-2-ad	0.277
NCI-H1651	0.55
COR-L23	0.206
HCC-827	0.25
RERF-LC-KJ	0.43
NCI-H3122	0.194
BEN	0.576
UMC-11	0.931
LCLC-97TM1	0.19
NCI-H2085	0.58
A-427	1
NCI-H838	0.262
NCI-H1793	0.755
201T	0.345
NCI-H2228	0.336
LOU-NH91	0.394
NCI-H1666	0.866
ChaGo-K-1	0.227
NCI-H647	0.167
NCI-H2126	0.716
NCI-H1755	0.405
PC-3 [JPC-3]	1.01
NCI-H2087	0.715
NCI-H441	0.292
HOP-62	0.311
NCI-H2170	0.256
NCI-H2347	0.434
HARA	0.254
NCI-H1355	0.874

Same assay, conditions: first compound 0.06325 µM

Cell Line	relative viability
PC-14	0.13
LXF-289	1.02
LC-2-ad	0.277
NCI-H1651	0.65
COR-L23	0.202
HCC-827	0.282
RERF-LC-KJ	0.454
NCI-H3122	0.203
BEN	0.771
UMC-11	0.749
LCLC-97TM1	0.173
NCI-H2085	0.952
A-427	0.966
NCI-H838	0.255
NCI-H1793	0.763
201T	0.334
NCI-H2228	0.375
LOU-NH91	0.374
NCI-H1666	0.782
ChaGo-K-1	0.266
NCI-H1993	0.708
NCI-H647	0.188
NCI-H2126	0.732
NCI-H1755	0.43
NCI-H2087	0.601
NCI-H441	0.265
HOP-62	0.376
NCI-H2170	0.244
NCI-H2347	0.456
NCI-H1355	0.998

Same assay, conditions: first compound 0.2 µM

Cell Line	relative viability
PC-14	0.168
LXF-289	0.913
LC-2-ad	0.273
NCI-H1651	0.578
COR-L23	0.201
HCC-827	0.256
RERF-LC-KJ	0.505
NCI-H3122	0.19
BEN	0.743
UMC-11	0.878
LCLC-97TM1	0.177
NCI-H2085	0.911
A-427	0.946
NCI-H838	0.244
NCI-H1793	0.935
201T	0.355

Cell Line	relative viability
NCI-H2228	0.398
LOU-NH91	0.39
NCI-H1666	0.879
ChaGo-K-1	0.245
NCI-H1993	0.616
NCI-H647	0.192
NCI-H2126	0.71
NCI-H1755	0.397
PC-3 [JPC-3]	1.33
NCI-H2087	0.639
NCI-H441	0.3
HOP-62	0.365
NCI-H2170	0.253
NCI-H2347	0.425
HARA	0.219
NCI-H1355	1.01

Same assay, conditions: first compound 0.6325 µM

Cell Line	relative viability
PC-14	0.143
LXF-289	0.856
LC-2-ad	0.263
NCI-H1651	0.537
COR-L23	0.181
HCC-827	0.215
RERF-LC-KJ	0.462
NCI-H3122	0.211
BEN	0.795
UMC-11	0.804
LCLC-97TM1	0.141
NCI-H2085	0.875
A-427	1.03
NCI-H838	0.269
NCI-H1793	1.07
201T	0.352

Cell Line	relative viability
NCI-H2228	0.331
LOU-NH91	0.374
NCI-H1666	0.866
ChaGo-K-1	0.246
NCI-H1993	0.632
NCI-H647	0.175
NCI-H2126	0.647
NCI-H1755	0.392
PC-3 [JPC-3]	1.28
NCI-H2087	0.622
NCI-H441	0.254
HOP-62	0.329
NCI-H2170	0.237
NCI-H2347	0.471
HARA	0.265
NCI-H1355	0.962

Same assay, conditions: first compound 2 µM

Cell Line	relative viability
PC-14	0.134
LXF-289	0.997
LC-2-ad	0.287
NCI-H1651	0.563
COR-L23	0.202
HCC-827	0.273
RERF-LC-KJ	0.464
NCI-H3122	0.2
BEN	0.631
UMC-11	0.759
LCLC-97TM1	0.189
NCI-H2085	0.802
A-427	1.04
NCI-H838	0.269
NCI-H1793	0.875
201T	0.362

Cell Line	relative viability
NCI-H2228	0.313
LOU-NH91	0.374
NCI-H1666	0.898
ChaGo-K-1	0.257
NCI-H1993	0.627
NCI-H647	0.216
NCI-H2126	0.675
NCI-H1755	0.444
PC-3 [JPC-3]	1.08
NCI-H2087	0.635
NCI-H441	0.289
HOP-62	0.373
NCI-H2170	0.273
NCI-H2347	0.445
HARA	0.261
NCI-H1355	1
